Results taken from patent publication US11312702B2, “Substituted quinoline-8-carbonitrile derivatives having androgen receptor degradation activity and uses thereof” (ACCUTAR BIOTECHNOLOGY INC., priority 2019, dated 2022).
Substitutions are numbered along the chain they refer to.

Experiments:
Format in all cases: cell-based
androgen receptor (AR) [1] = biological target: T1, androgen receptor (AR) (Homo sapiens, UniProt P10275, T878A); test: AR degradation activity in LNCAP cells (Western blot); details: LNCAP cell line, 24 hours after administration; DC50 = concentration for 50% target protein degradation
T1 construct: endogenous in cells; host or cells: LNCAP
T1 sequence (P10275 1-920 T878A): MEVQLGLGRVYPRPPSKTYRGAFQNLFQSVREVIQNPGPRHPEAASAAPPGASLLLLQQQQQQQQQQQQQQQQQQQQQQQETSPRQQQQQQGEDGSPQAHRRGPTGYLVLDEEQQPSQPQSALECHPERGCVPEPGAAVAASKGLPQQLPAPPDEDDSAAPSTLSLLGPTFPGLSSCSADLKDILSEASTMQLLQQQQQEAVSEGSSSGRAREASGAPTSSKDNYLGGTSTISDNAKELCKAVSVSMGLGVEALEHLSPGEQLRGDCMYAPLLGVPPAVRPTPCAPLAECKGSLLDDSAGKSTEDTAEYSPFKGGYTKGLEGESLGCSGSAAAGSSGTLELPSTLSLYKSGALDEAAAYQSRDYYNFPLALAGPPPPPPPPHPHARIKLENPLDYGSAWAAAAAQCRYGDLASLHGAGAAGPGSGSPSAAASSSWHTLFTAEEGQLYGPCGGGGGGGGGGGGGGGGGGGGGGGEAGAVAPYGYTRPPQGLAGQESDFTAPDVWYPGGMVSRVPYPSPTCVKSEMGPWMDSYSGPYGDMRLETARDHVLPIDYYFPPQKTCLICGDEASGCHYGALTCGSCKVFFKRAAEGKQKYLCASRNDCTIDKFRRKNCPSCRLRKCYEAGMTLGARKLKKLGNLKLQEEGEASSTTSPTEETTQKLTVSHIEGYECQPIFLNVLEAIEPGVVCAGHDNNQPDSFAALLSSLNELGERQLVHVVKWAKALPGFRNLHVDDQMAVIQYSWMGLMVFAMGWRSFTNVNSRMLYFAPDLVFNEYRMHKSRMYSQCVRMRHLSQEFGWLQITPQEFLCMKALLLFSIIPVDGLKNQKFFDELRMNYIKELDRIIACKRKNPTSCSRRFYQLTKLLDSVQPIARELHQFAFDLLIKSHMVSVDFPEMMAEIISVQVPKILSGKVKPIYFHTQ
Procedure: (§1) LNCAP, VCAP and 22Rv1 cells were plated in 24-well plates at 1.5×10E5 cells/well in the RPMI growth medium containing 10% FBS and 1% Penicillin Streptomycin, and then incubated at 37° C. overnight. The following day, the test compound was administered to the cells by using 1000× compound stock solution prepared in DMSO at various concentrations. After administration of the compound, the cells were then incubated at 37° C. for 24 hours. Upon completion, the cells were washed with PBS and protein was collected in Laemmli sample buffer (1×; VWR International). Proteins in cell lysate were separated by SDS-PAGE and transferred to Odyssey nitrocellulose membranes (Licor) with iblot® dry blotting transfer system (ThermoFisher). Nonspecific binding was blocked by incubating membranes with Intercept Blocking Buffer (Licor) for 1 hour at room temperature with gentle shaking. The membranes were then incubated overnight at 4° C. with Primary antibodies rabbit anti-AR (1:1,000, Cell Signaling, 5153) and mouse anti-GAPDH (1:5,000, Santa Cruz Biotechnology, sc-47724) diluted in Intercept Blocking Buffer containing 0.1% Tween 20. After washing 3 times with TBS-T, the membranes were incubated with IRDye® […] goat anti-mouse IgG (1:20,000, Licor) or IRDye®8000W goat anti-rabbit IgG (1:20,000, Licor) for 1 hour. After TBS-T washes, membranes were rinsed in TBS and scanned on Odyssey® CLx Imaging System (Licor). The bands were quantified using Image Studio™ Software (Licor).
(§2) Table 4 summarizes the androgen receptor (AR) degradative activity and cell growth inhibition of exemplary compounds in (a) LNCAP, VCAP, and 22Rv1 cell lines 24 hours after administration of the compound; (b) RAMOS cell line 3 days after administration of the compound; and (c) VCAP cell line 6 days after administration of the compound. DC50: compound concentration needed for 50% target protein degradation.

RAMOS cells = test: Cell growth inhibition for Ramos cells (CellTiter-Glo); details: Homo sapiens, 72 h; RAMOS cell line, 3 days after administration
Procedure: RAMOS cells (ATCC) were seeded in 96-well plates at 16,000 cell/well in 90 μl of RPMI growth medium containing 10% Heat-Inactivated Fetal Bovine Serum and 1% Penicillin/Streptomycin. The test compound was administered to the cells by using 10× compound stock solution prepared in growth medium at various concentrations. After administration of the compound, cells were then incubated at 37° C. for 3 days. Before CellTiter-Glo assay, the plates were equilibrated at room temperature for approximately 10 minutes. 100 ul of CellTiter-Glo® Reagent (Promega) was added to each well. The plates were then incubated at room temperature for 10 minutes and luminescence was recorded by EnSpire plate reader (PerkinElmer).
as §2

VCAP cells = test: Cell growth inhibition for VCAP cells (CellTiter-Glo); details: Homo sapiens, 144 h; VCAP cell line, 6 days after administration, 0.1 nM R1881, charcoal-stripped FBS
Procedure: VCAP cells (ATCC) were seeded in 96-well plates at 3000 cell/well in 80 μl of DMEM growth medium containing 10% charcoal-stripped FBS (CSS) and 1% Penicillin/Streptomycin. Cells were incubated at 37° C. overnight. The following day, the test compound was administered to the cells by using 10× compound stock solution prepared in growth medium at various concentrations. Four hours later, 0.1 nM R1881 (Sigma) was administered to the cells by using 10× compound stock solution prepared in growth medium. 0.1% DMSO with or without 0.1 nM R1881 was administered as control. Cells were then incubated at 37° C. for 6 days. Before CelTiter-Glo assay, the plates were equilibrated at room temperature for approximately 10 minutes. 100 ul of CellTiter-Glo® Reagent (Promega) was added to each well. The plates were then incubated at room temperature for 10 minutes and luminescence was recorded by EnSpire plate reader (PerkinElmer).
as §2

androgen receptor (AR) [2] = biological target: T2, androgen receptor (AR) (Homo sapiens, UniProt P10275); test: AR degradation activity in VCAP cells (Western blot); details: VCAP cell line, 24 hours after administration; DC50 = concentration for 50% target protein degradation
T2 construct: endogenous in cells; host or cells: VCAP
T2 sequence (P10275 1-920): T1 sequence (P10275 1-920 T878A) with A878T
Procedure: as §1, §2

androgen receptor (AR) [3] = test: AR degradation activity in 22Rv1 cells (Western blot); details: 22Rv1 cell line, 24 hours after administration; DC50 = concentration for 50% target protein degradation
Procedure: as §1, §2

Row | SMILES | DC50 (androgen receptor (AR) [1]) [nM] | GI50 (RAMOS cells) [nM] | GI50 (VCAP cells) [nM] | DC50 (androgen receptor (AR) [2]) [nM] | DC50 (androgen receptor (AR) [3]) [nM]
1 | CC1(C)C(NC(=O)c2ccc(N3CCC(CN4CCN(c5ccc6c(c5)C(=O)N(C5CCC(=O)NC5=O)C6=O)CC4)CC3)nc2)C(C)(C)C1Oc1ccc(C#N)c2ncccc12 (stereo not drawn) [Compound 2-13, N-(1,3-trans)-3-((8-cyanoquinolin-5-yl)oxy)-2,2,4,4-tetramethylcyclobutyl)-6-(4-((4-(2-(2,6-dioxopiperidin-3-yl)-1,3-dioxoisoindolin-5-yl)piperazin-1-yl)methyl)piperidin-1-yl)nicotinamide] | 0.7 | > 3000 | 47.6 | 0.7 | 
2 | CC1(C)C(NC(=O)c2cnc(N3CCC(CN4CCN(c5ccc6c(c5)C(=O)N(C5CCC(=O)NC5=O)C6=O)CC4)CC3)nc2)C(C)(C)C1Oc1ccc(C#N)c2ncccc12 (stereo not drawn) [Compound 2-18, N-(1,3-trans)-3-((8-cyanoquinolin-5-yl)oxy)-2,2,4,4-tetramethylcyclobutyl)-2-(4-((4-(2-(2,6-dioxopiperidin-3-yl)-1,3-dioxoisoindolin-5-yl)piperazin-1-yl)methyl)piperidin-1-yl)pyrimidine-5-carboxamide] | 0.4 |  |  | 0.4 | 
3 | CC1(C)[C@H](NC(=O)c2ccc(N3CCC(CN4CCN(c5ccc6c(c5)C(=O)N(C5CCC(=O)NC5=O)C6=O)CC4)CC3)nn2)C(C)(C)[C@H]1Oc1ccc(C#N)c2ncccc12 (some centres unmarked) [Compound 2-19] | 0.5 |  |  | 1 | 
4 | CC1(C)[C@H](NC(=O)c2ccc(N3CCC(CN4CCN(c5ccc6c(c5)C(=O)N(C5CCC(=O)NC5=O)C6=O)CC4)CC3)c(F)c2)C(C)(C)[C@H]1Oc1ccc(C#N)c2ncccc12 (some centres unmarked) [Compound 2-22] | 1 |  | 8 | 1.7 | 2.8
5 | CC1(C)C(NC(=O)c2ccc(N3CCC(CCN4CCN(c5ccc6c(c5)C(=O)N(C5CCC(=O)NC5=O)C6=O)CC4)CC3)cc2)C(C)(C)C1Oc1ccc(C#N)c2ncccc12 (stereo not drawn) [Compound 2-43, N-(1,3-trans)-3-((8-cyanoquinolin-5-yl)oxy)-2,2,4,4-tetramethylcyclobutyl)-4-(4-(2-(4-(2-(2,6-dioxopiperidin-3-yl)-1,3-dioxoisoindolin-5-yl)piperazin-1-yl)ethyl)piperidin-1-yl)benzamide] | 2 | > 3000 | 31.2 | 1.8 | 

Next, values leading:

Row | DC50 (androgen receptor (AR) [1]) [nM] | GI50 (RAMOS cells) [nM] | GI50 (VCAP cells) [nM] | DC50 (androgen receptor (AR) [2]) [nM] | DC50 (androgen receptor (AR) [3]) [nM] | SMILES
6 | 2.2 | > 3000 | 18 | 1.2 | 0.9 | CC1(C)C(NC(=O)c2ccc(N3CCC(CN4CCN(c5ccc6c(c5)C(=O)N(C5CCC(=O)NC5=O)C6=O)CC4)CC3)cc2)C(C)(C)C1Oc1ccc(C#N)c2ncccc12 (stereo not drawn) [Compound 2-21, N-(1,3-trans)-3-((8-cyanoquinolin-5-yl)oxy)-2,2,4,4-tetramethylcyclobutyl)-4-(4-((4-(2-(2,6-dioxopiperidin-3-yl)-1,3-dioxoisoindolin-5-yl)piperazin-1-yl)methyl)piperidin-1-yl)benzamide]
7 | 0.1 | > 3000 | 2.1 |  | 0.13 | CC1(C)C(NC(=O)c2ccc(N3CCC(CN4CCN(c5ccc6c(c5)CN([C@H]5CCC(=O)NC5=O)C6=O)CC4)CC3)nc2)C(C)(C)C1Oc1ccc(C#N)c2ncccc12 (some centres unmarked) [Compound 2-29]
8 | 0.1 | > 3000 | 5.7 | 0.3 | 0.25 | CC1(C)C(NC(=O)c2ccc(N3CCC(CN4CCN(c5ccc6c(c5)CN([C@H]5CCC(=O)NC5=O)C6=O)CC4)CC3)c(F)c2)C(C)(C)C1Oc1ccc(C#N)c2ncccc12 (some centres unmarked) [Compound 2-32]
9 | 0.4 | > 3000 | 8.2 | 0.4 | 0.4 | CC1(C)[C@H](NC(=O)c2ccc(N3CCC(CN4CCN(c5ccc6c(c5)CN([C@H]5CCC(=O)NC5=O)C6=O)CC4)CC3)cc2)C(C)(C)[C@H]1Oc1ccc(C#N)c2ncccc12 [Compound 2-49, N-((1,3-trans)-3-((8-cyanoquinolin-5-yl)oxy)-2,2,4,4-tetramethylcyclobutyl)-4-(4-((4-(2-((S)-2,6-dioxopiperidin-3-yl)-1-oxoisoindolin-5-yl)piperazin-1-yl)methyl)piperidin-1-yl)benzamide]
